Test system: CN0375-F725-PDC KRAS spheroid viability
Experiment: Anticancer human tumor CN0375-F725-PDC patient-derived colon carcinoma cell line growth inhibition [KRAS2]
Conditions: spheroids with HUVEC and MSC; for IC50: curve of first compound; for viability, T/C: stronger effect = lower value
Excerpt: Multicellular complex tumor spheroid response to RAS pathway inhibitors in combination with a targeted agents in patient-derived cell lines with oncogenic KRAS variants from multiple cancer types
A high-throughput screen of multi-cell type tumor spheroids was designed to identify active combinations of targeted small molecules and KRAS pathway inhibitors. Complex spheroids include a stromal component modeled by human endothelial cells (HUVEC) and fibroblasts modeled by human mesenchymal stem cells (MSCs). The concentration ranges selected for each drug and investigational agent were based upon clinically achievable concentrations if the clinical Cmax of the agent was known.
Compounds. The drugs and investigational agents: BI-3406 (NSC825286), BAY-293 (NSC824723), batoprotafib (TNO155; NSC825523), sotorasib (AMG 510; NSC818433), MRTX1257 (NSC819558), elimusertib (BAY 1895344; NSC800525), molibresib (GSK525762; NSC774829), temuterkib (LY3214996; NSC803410), venetoclax (NSC766270), alisertib (NSC759677), olaparib (NSC753686), talazoparib (NSC767125), erdafitinib (NSC781556), ipatasertib (NSC767898), cabozantinib (NSC761068), nintedanib (NSC756659), abemaciclib (NSC768073), docetaxel (NSC628503), trametinib (NSC758246), and sapanisertib (NSC764658) were obtained from the National Cancer Institute (NCI) Developmental Therapeutics Program Chemical Repository. The FDA-approved anticancer drug set is available from the Developmental Therapeutics Program. […] The stock solutions were prepared in dimethyl sulfoxide (DMSO, Sigma-Aldrich, St. Louis, MO, cat. D2650) at 800-fold the tested concentration and stored at -70 degrees C prior to their use. All drugs and investigational agents were tested over a range starting from a high concentration at or near the clinical Cmax and decreasing in half-log increments. If the clinical Cmax for an agent had not been determined, the highest concentration tested was 10 microM.
Cell Culture. All cells were maintained in an incubator at 37 degrees C and 5% CO2 with 95% humidity. The PDC lines were cultured according to standard operating procedures established by the NCI PDMR (https://pdmr.cancer.gov/sops/default.htm). Briefly, all PDCs were thawed and cultured in Matrigel-coated flasks prepared with a working solution of 1X Ham's F-12 nutrient mix, without supplementation (Invitrogen, Waltham, MA, cat. 11765054), 100 U/mL penicillin-streptomycin (Invitrogen, cat. 15140122), and 2.5% Matrigel (Corning Inc., Corning, NY, cat. 354248) for the first three passages. All PDCs were cultured in complete DMEM/F-12 media containing advanced DMEM/F-12 (Invitrogen, cat. 12634028), 4.9% defined fetal bovine serum, heat inactivated (HyClone Laboratories Inc., Logan, UT, cat. SH30070.03HI), 389 ng/mL hydrocortisone (Sigma-Aldrich, cat. H4001), 9.7 ng/mL human EGF recombinant protein (Invitrogen, cat. PHG0313), 23.4 microg/mL adenine (Sigma-Aldrich, cat. A2786), 97.3 U/mL penicillin-streptomycin (Invitrogen, cat. 15140122), 1.9 mM L-glutamine (Invitrogen, cat. 25030081), and 9.7 microM Y-27632 dihydrochloride (Tocris Bioscience, Bristol, United Kingdom, cat. 1254). The PDCs were cultured in complete DMEM/F12 media without 9.7 microM Y-27632 dihydrochloride for at least two passages prior to the screen. The established cell line HOP-62 was cultured in RPMI 1640 medium, HEPES (Invitrogen, cat. 22400105) with 10% defined fetal bovine serum (HyClone Laboratories Inc., cat. SH30070.03) and 2 mM L-glutamine (Invitrogen, cat. 25030081). The pooled donor HUVEC were cultured in endothelial cell growth medium 2 (PromoCell, Heidelberg, Germany, cat. C-22011) and the hMSC were cultured in mesenchymal stem cell growth medium 2 (PromoCell, cat. C-28009). For all experiments, HUVEC and hMSC were used at passages </=5, while the malignant cell lines were used at passages </=15. […]

[1] = second compound 0.1 µM, first compound 0.0316 µM
[2] = second compound 0.1 µM, first compound 0.1 µM
[3] = second compound 0.1 µM, first compound 0.316 µM
[4] = second compound 0.1 µM, first compound 1 µM
[5] = second compound 0.1 µM, first compound 3.16 µM
[6] = second compound 0.316 µM, first compound 0.0316 µM
[7] = second compound 0.316 µM, first compound 0.1 µM
[8] = second compound 0.316 µM, first compound 0.316 µM
[9] = second compound 0.316 µM, first compound 1 µM
[10] = second compound 0.316 µM, first compound 3.16 µM
[11] = second compound 1 µM, first compound 0.0316 µM
[12] = second compound 1 µM, first compound 0.1 µM
[13] = second compound 1 µM, first compound 0.316 µM
[14] = second compound 1 µM, first compound 1 µM
[15] = second compound 1 µM, first compound 3.16 µM
[16] = second compound 3.16 µM, first compound 0.0316 µM
[17] = second compound 3.16 µM, first compound 0.1 µM
[18] = second compound 3.16 µM, first compound 0.316 µM
[19] = second compound 3.16 µM, first compound 1 µM
[20] = second compound 3.16 µM, first compound 3.16 µM
[21] = second compound 10 µM, first compound 0.0316 µM
[22] = second compound 10 µM, first compound 0.1 µM
[23] = second compound 10 µM, first compound 0.316 µM
[24] = second compound 10 µM, first compound 1 µM
[25] = second compound 10 µM, first compound 3.16 µM
[26] = second compound 0.1 µM, first compound 10 µM
[27] = second compound 0.316 µM, first compound 10 µM
[28] = second compound 1 µM, first compound 10 µM
[29] = second compound 3.16 µM, first compound 10 µM
[30] = second compound 10 µM, first compound 10 µM
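Also: spheroids exposed to agents for 7 days.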

Row | SMILES | IC50 (second compound 0.1 µM) | IC50 (second compound 0.316 µM) | IC50 (second compound 1 µM) | IC50 (second compound 3.16 µM) | IC50 (second compound 10 µM) | viability, T/C [1] | viability, T/C [2] | viability, T/C [3] | viability, T/C [4] | viability, T/C [5] | viability, T/C [6] | viability, T/C [7] | viability, T/C [8] | viability, T/C [9] | viability, T/C [10] | viability, T/C [11] | viability, T/C [12] | viability, T/C [13] | viability, T/C [14] | viability, T/C [15] | also measured
1 | CC1COCCN1c1cc(-c2ccnn2C)c2ccnc(-c3ccn[nH]3)c2n1 (stereo not given) + CC1OCC2(CCN(c3cnc(Sc4ccnc(N)c4Cl)c(N)n3)CC2)C1N | > 3.16 µM | > 3.16 µM | > 3.16 µM | 1.76 µM | 0.614 µM | 91.7% | 84.1% | 77.1% | 67.5% | 56.2% | 92.8% | 74.3% | 72.9% | 65.1% | 51.3% | 82.7% | 73.3% | 70.7% | 62.1% | 48.6% | viability, T/C (second compound 0.1 µM, first compound 0.01 µM): 107%; viability, T/C (second compound 0.316 µM, first compound 0.01 µM): 90.7%; viability, T/C (second compound 1 µM, first compound 0.01 µM): 88.2%; viability, T/C (second compound 3.16 µM, first compound 0.01 µM): 81.4%; viability, T/C [16]: 76.8%; viability, T/C [17]: 68.3%; viability, T/C [18]: 59.3%; viability, T/C [19]: 54.2%; viability, T/C [20]: 46.4%; viability, T/C (second compound 10 µM, first compound 0.01 µM): 69.7%; viability, T/C [21]: 74.8%; viability, T/C [22]: 62.5%; viability, T/C [23]: 53.2%; viability, T/C [24]: 49.2%; viability, T/C [25]: 39.6%
2 | O=C(c1cc(Cc2n[nH]c(=O)c3ccccc23)ccc1F)N1CCN(C(=O)C2CC2)CC1 + CNCc1ccccc1-c1csc(C(C)Nc2nc(C)nc3cc(OC)c(OC)cc23)c1 | > 10 µM | > 10 µM | > 10 µM | < 0.0316 µM | < 0.0316 µM | 112% | 109% | 100% | 107% | 104% | 108% | 105% | 96.8% | 92.3% | 96.9% | 96.9% | 94.8% | 89.7% | 81% | 87.8% | viability, T/C [26]: 95.5%; viability, T/C [27]: 87.7%; viability, T/C [28]: 79.6%; viability, T/C [16]: 0.68%; viability, T/C [17]: 0.36%; viability, T/C [18]: 0.74%; viability, T/C [19]: 0.33%; viability, T/C [20]: 0.37%; viability, T/C [29]: 0.55%; viability, T/C [21]: 0.64%; viability, T/C [22]: 0.22%; viability, T/C [23]: 0.57%; viability, T/C [24]: 0.37%; viability, T/C [25]: 0.19%; viability, T/C [30]: 0.33%
3 | CC1OCC2(CCN(c3cnc(Sc4ccnc(N)c4Cl)c(N)n3)CC2)C1N (stereo not given) + C=CC(=O)N1CCN(c2nc(=O)n(-c3c(C)ccnc3C(C)C)c3nc(-c4c(O)cccc4F)c(F)cc23)C(C)C1 | > 10 µM | > 10 µM | > 10 µM | > 10 µM | > 10 µM | 102% | 86.4% | 82.5% | 79.1% | 77.2% | 98.8% | 85.5% | 78.3% | 79.9% | 77.5% | 96.3% | 99.3% | 86.3% | 82.9% | 75.2% | viability, T/C [26]: 63.6%; viability, T/C [27]: 59.8%; viability, T/C [28]: 65.6%; viability, T/C [16]: 104%; viability, T/C [17]: 92.4%; viability, T/C [18]: 81.4%; viability, T/C [19]: 81%; viability, T/C [20]: 71.6%; viability, T/C [29]: 65.6%; viability, T/C [21]: 94%; viability, T/C [22]: 92.2%; viability, T/C [23]: 77.9%; viability, T/C [24]: 66.3%; viability, T/C [25]: 61.8%; viability, T/C [30]: 49.6%

From PubChem BioAssay AID1963860 (Molecular Pharmacology Branch, DTP, NCI, 2024)
